# Test results: patent US20260374750A1, “LIGANDS SPECIFICALLY TARGETING VESICULAR GLUTAMATE TRANSPORTERS FOR SUPER-RESOLUTION IMAGING” (SORBONNE UNIVERSITÉ, priority 2021, published 2026)
# Like-named read-outs stand apart in the source and are kept apart here.
# Key:
# BON WT cells = test: Confocal fluorescence labeling of wild-type BON cells; format: cell-based, human; details: FIG. 2
# Experimental: (§1) The experiments are carried out with a BON cell line stably expressing VGLUT3 or a fluorescent VGLUT2 “VGLUT2-venus”. Wild non-transfected BON cells (“wild-type”, BON WT) are used as controls. The cells are cultured in F-12 Nutrient Mixture Ham medium (21765-029, Thermo Fisher Scientific) and Dulbecco's Modified Eagle's Medium High Glucose (DMEM HG, 31966021, Thermo Fisher Scientific; volume/volume), supplemented with 10% fetal calf serum (FCS, 12483012, Thermo Fisher Scientific) and 1% (volume/volume) of a mixture of streptomycin (10 mg/mL)/penicillin (10,000 U/mL) and […] an incubator at 37 °C under 5% CO2. For the transfected clones, the medium is enriched with 0.8 mg/mL Geneticin G418 sulfate (G418, 10131027, Thermo Fisher Scientific).
# (§2) Two days before each experiment, after trypsinization of the cells from a culture flask, the cell suspension is seeded at 150,000 cells/well, in twelve-well plates on glass coverslips 19 mm in diameter. For observation, these coverslips are placed in a chamber allowing a hermetic fixation of the coverslip in the observation medium, Fluorobrite™ DMEM (A1896701, Thermo Fisher Scientific), a transparent medium.
# (§3) Before each observation, the cells are incubated at 37 °C in the presence of fluorescent ligands, at previously determined concentrations. The effect of a pretreatment of BON cells with a specific inhibitor of VGLUTs, the substance LSP5-2157, is also performed to study the inhibitory effect of this substance on the labeling of BON cells with the fluorescent ligands of the invention.
# (§4) The cells are observed in real time under an inverted confocal microscope, with a 63× objective in a room thermostated at 37 °C (Leica TCS SP5; cellular imaging platform of the Paris-Seine Institute of Biology). The studied fluorescent molecules emit in the blue, the cells are excited at 405 nm.
# (§5) FIG. 2 illustrates the observation and quantification of the BON cells under a confocal microscope, and the inhibition of the fluorescent signal by a pretreatment of the cells with the specific VGLUT inhibitor, LSP5-2157. […] The images are presented in negative. D,H,L and P: Quantification of the treatment effect.
# [1] = test system: VGLUT3 (BON VGLUT3 cells); test: Confocal fluorescence labeling of BON cells expressing VGLUT3; format: cell-based, human (BON cells); details: for fluorescence intensity in BON VGLUT3 cells relative to BON WT cells / labeling in cytoplasm of BON VGLUT3 cells: 1 h; for fluorescence intensity in BON VGLUT3 cells relative to BON WT cells / labeling in cytoplasm of BON VGLUT3 cells / intensity of labeling in BON VGLUT3 cells relative to BON WT cells: 37 °C; for effect of LSP5 pretreatment on fluorescence intensity in BON VGLUT3 cells: pretreatment with LSP5-2157; for intensity of labeling in BON VGLUT3 cells relative to BON WT cells: FIG. 3, 20 minutes
# Experimental: A “BON” cell line describes cells derived from human pancreatic carcinoma; the article by Ramet L. et al., published in J Neurosci, 2017, 37 (15), 4181-4199, describes such cells and the use thereof for the characterization of VGLUT type transporters.
# as §1
# The cells are cultured in 25 cm^2 culture flasks. When the cells are at confluence, they are rinsed with sterile PBS 1× after aspiration of the medium, then incubated for five minutes at 37 °C with a solution of trypsin-EDTA (0.05% trypsin EDTA, 25300054, Thermo Fisher Scientific. The cell layer is then detached and the cells dissociated from each other. After addition of medium, the cell suspension is centrifuged for 5 minutes at 300 g, then the pellet is diluted 1:3 in order to be recultivated.
# as §2, §3, §4, §5
# Different acquisitions of cells are carried out using a confocal microscope. […] Statistical analysis: Kruskal-Wallis test followed by Dunn's post-hoc test, NS: non-significant, *p<0.01; ***p<0.0001.
# FIG. 3 illustrates the observation and quantification of BON cells using a confocal microscope. Wild-type cells (BON WT) or VGLUT3-expressing cells (BON VGLUT3) are incubated with different fluorescent ligands referenced: L8, YL151, D04, C07, C05, B09, G02, F11. After treatment with fluorescent ligands for 20 minutes at 37 °C, a fluorescent labeling is visible in BON cells. The effect of the treatment is analyzed by quantifying the fluorescence intensity in each cell type. […] Statistical analysis: Mann Whitney test, NS: non-significant, **p=0.0042; ***p<0.0001.
# [2] = Fluorimetry: absorption and emission spectra, Stokes shift, molar absorption coefficient, quantum efficiency; format: physicochemical; design: λmax abs / λmax em: unit not given here; key to Stokes shift: λmaxem − λmaxabs (emission peak minus absorption peak); details: for Stokes shift: λmaxem-λmaxabs; for ε (molar absorption coefficient) / φ (quantum efficiency): coumarin-343 as reference
# Experimental: The physicochemical properties of each ligand were determined thanks to fluorimetry. For each compound, a dilution range was performed and measurements were taken at 1 mM, 316 μM, 100 μM, 31.6 μM, 10 μM, 3.16 μM and 1μ. In 96-well fluorescence microplates, the absorbance and emission spectra of the ligands could be determined at each concentration thanks to a plate spectrophotometer (Tecan). The absorbance spectra are first measured for each compound so as to determine the maximum absorption wavelength (λmaxabs). The fluorescence, or emission, spectra are then determined after excitation of each compound at its λmaxabs, thus allowing obtaining the maximum fluorescence wavelength (λmaxem). Different parameters specific to each of the compounds were determined: • The Stokes shift: it corresponds to the difference between the peak of the absorption spectrum and the peak of the fluorescence spectrum, i.e.: λmaxem-λmaxabs • The molar absorption coefficient (ε): it reflects the capacity of the solutions to absorb light and is determined by the formula ε=A/(C.I)(A: optical density at λmaxabs, C: concentration of the compound, I: constant corresponding to the length of the optical path). ε is expressed in L·cm^−1·mol^−1. • The quantum efficiency (Φ): it represents the ratio of the number of photons emitted to the number of photons absorbed by the compound, i.e. the “probability” for an excited molecule to emit a photon. It takes a value between 0 and 1, 0 corresponding to a non-fluorescent molecule and 1 meaning that there is no de-excitation. Its value is determined thanks to the following formula where Abs: optical density at λmaxabs, AUC: area under the curve of the fluorescence spectrum, n: refractive index of the medium. In this formula, “m” refers to the studied molecule, and “r” to a reference fluorophore.
# [formula] • of the fluorescence spectrum, n: refractive index of the medium). In this formula, “m” refers to the studied molecule, and “r” to a reference fluorophore.
# The determination of ε and Φ requires the use of a reference fluorescent molecule for which these two parameters are known. Because of its coumarin-type fluorescent pattern, therefore close to those of the studied compounds, coumarin-343 (ε=44300 L·cm−1·mol−1 and Φ=0.63 in ethanol) was used as reference fluorophore. These two parameters were recalculated in the compound dilution medium (DMSO), and were used as a reference in the calculation of ε and Φ for each ligand.
# In order to study the effect of a pH variation on the fluorescence intensity of the compounds, the measurements of the absorption and emission spectra were carried out in three different dilution media: • DMSO: pure dimethyl sulfoxide • Phosphate buffer pH 7.2 (0.2 M) • Phosphate buffer pH 5.5 (0.2 M)
# FIG. 1 illustrates the absorption and emission spectra of the compound referenced L8, a carboxylic acid from the quinoline family. This is an example of the study carried out on each of the studied fluorophores. The graphic values determined thanks to these spectra are the λmaxabs, the λmaxem and the Stokes shift in each medium. […] The most diluted wells are preferred to see the emission peak of the compound.
# The results which are obtained graphically thanks to the excitation and emission spectra and by calculation via the properties of coumarin 343 are grouped in Table 2 below.
# [3] = reference fluorophore, in ethanol; cited from earlier work
# [4] = pH 7 (phosphate buffer pH 7.2, 0.2 M)
# [5] = phosphate buffer pH 5.5 (0.2 M)
λmax abs ([2]; DMSO),λmax em ([2]; DMSO),Stokes shift ([2]; DMSO),ε (molar absorption coefficient) ([2]; DMSO),φ (quantum efficiency) ([2]; DMSO),Stokes shift ([2]; pH 5.5),"λmax abs [2, 4]","λmax em [2, 4]",Stokes shift ([2]; pH 7),"λmax abs [2, 5]","λmax em [2, 5]",SMILES,labeling in cytoplasm of BON WT cells (BON WT cells),fluorescence intensity in BON VGLUT3 cells relative to BON WT cells ([1]; FIG. 2),labeling in cytoplasm of BON VGLUT3 cells ([1]; FIG. 2),effect of LSP5 pretreatment on fluorescence intensity in BON VGLUT3 cells ([1]; FIG. 2),intensity of labeling in BON VGLUT3 cells relative to BON WT cells [1],further results
320,407,87,48740.9 L/cm/mol,0.1,47,365,412,47,365,412,"CCOC(=O)c1cc2cc(-n3cc(-c4ccc(-c5ccc(N)cc5)cc4)nn3)ccc2oc1=O [B09, Ethyl-6-(4-(4′-amino-[1,1′-biphenyl]-4-yl)-1H-1,2,3-triazol-1-yl)-2-oxo-2H-chromene-3-carboxylate]",a weak and homogeneous labeling is detected,significantly increases,a punctiform labeling appears,decreases the fluorescence intensity,increases significantly,
335,410-430,75,64913.8 L/cm/mol,0.05,50,365,400,35,330,380,"CCOC(=O)c1cc2cc(-n3cc(-c4ccc(-c5ccc(N)cc5)cc4)nn3)c(OC)cc2oc1=O [C07, Ethyl 6-(4-(4′-amino-[1,1′-biphenyl]-4-yl)-1H-1,2,3-triazol-1-yl)-7-methoxy-2-oxo-2H-chromene-3-carboxylate]",a weak and homogeneous labeling is detected,significantly increases,a punctiform labeling appears,do not significantly differ,increases significantly,
,,,,,,,,,,,"Nc1cc(S(=O)(=O)O)cc2cc(S(=O)(=O)O)c(/N=N/c3ccc(-c4ccc(/N=N/c5c(S(=O)(=O)O)cc6cc(S(=O)(=O)O)cc(N)c6c5O)cc4)cc3)c(O)c12 [LSP5-2157, reference compound]",,,,,,"inhibition of fluorescent labeling by pre-incubation with VGLUT inhibitor ([1]; FIG. 2, against labeling by fluorescent ligands): significantly reduces the fluorescent labeling; displacement of ligand binding in cell culture ([1]; reference VGLUT inhibitor): capable of displacing the ligand binding in cell culture"
360,420-570,60,25747.1 L/cm/mol,0.11,85,365,440,75,365,450,"CCOC(=O)c1cc(C(=O)OCC)c2cc(-c3ccc(-c4ccccc4)cc3)ccc2n1 [YL151, Diethyl 6-(biphenyl-4-yl) quinoline-2,4-dicarboxylate]",,,,,increases significantly,
,,,,,,,,,,,O=C(O)c1cc2cc3c4c(c2oc1=O)CCCN4CCC3 [coumarin-343],,,,,,Φ (quantum efficiency) [3]: 0.63; ε (molar absorption coefficient) [3]: 44300 L/cm/mol
,,,,,,,,,,,"Cc1cc(-c2ccc(/N=N/c3c(S(=O)(=O)O)cc4cc(S(=O)(=O)O)cc(N)c4c3O)c(C)c2)ccc1/N=N/c1c(S(=O)(=O)O)cc2cc(S(=O)(=O)O)cc(N)c2c1O [trypan blue, reference compound]",,,,,,block of binding of novel ligands by reference inhibitor [1]: block the binding of novel ligands
